The record followed here is patent US6753348B2, “BTK inhibitors and methods for their identification and use” (Parker Hughes Institute, priority 1998, dated 2004).

Structures are written as SMILES.

One data set relates to NALM-6 cells. Briefly: Apoptosis induction, TUNNEL and flow cytometric assay. Format: cell-based, human. To be noted: compound alone, 100 μM. (A flow cytometer gives signals particle by particle.)
The target in another data set is BTK (Mus musculus, UniProt P35991). Briefly: BTK inhibition assay of benzopyran derivatives. Type of data set: biochemical. The following applies: for IC50: BTK inhibitory activity; for BTK inhibitory activity in words: kinase assays.
Sequence of BTK (P35991 whole entry): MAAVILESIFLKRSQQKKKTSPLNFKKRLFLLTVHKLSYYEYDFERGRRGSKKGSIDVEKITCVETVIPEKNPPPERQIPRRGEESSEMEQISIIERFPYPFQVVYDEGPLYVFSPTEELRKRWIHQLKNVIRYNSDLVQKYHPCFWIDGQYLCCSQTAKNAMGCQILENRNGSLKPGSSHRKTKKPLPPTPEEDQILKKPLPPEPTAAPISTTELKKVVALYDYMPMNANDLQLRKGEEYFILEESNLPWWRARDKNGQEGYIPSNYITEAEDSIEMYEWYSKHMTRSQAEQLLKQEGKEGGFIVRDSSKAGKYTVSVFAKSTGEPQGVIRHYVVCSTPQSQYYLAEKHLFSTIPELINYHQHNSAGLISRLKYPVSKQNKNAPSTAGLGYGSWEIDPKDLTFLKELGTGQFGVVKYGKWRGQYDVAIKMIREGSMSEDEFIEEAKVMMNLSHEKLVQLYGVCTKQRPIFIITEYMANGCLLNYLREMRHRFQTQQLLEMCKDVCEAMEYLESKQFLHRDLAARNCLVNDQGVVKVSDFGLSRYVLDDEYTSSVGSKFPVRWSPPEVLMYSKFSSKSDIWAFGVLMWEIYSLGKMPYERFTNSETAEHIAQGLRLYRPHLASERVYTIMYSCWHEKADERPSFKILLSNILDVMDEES
The subject of the next data set is human leukemia cells. Briefly: Ceramide or vincristine sensitivity of human leukemia cells. Type of data set: cell-based. The following applies: co-administration with chemotherapeutic agent. From the text:
FIG. 23: Effects of DDE-11 on ceramide or vincristine—sensitivity of human leukemia cells. Studies were done as described above for FIG. 17, but using DDE 11 as the BTK inhibitor.

The next data set deals with RBL-2H3 rat mast cells. The data set can be described thus: IgE/FcεRI receptor mediated leukotriene C4 release, RBL-2H3 mast cells. Type of data set: cell-based. To be noted: RBL-2H3, IgE/DNP-BSA challenge, 30 min pre-incubation, 1-100 μM, N = 3-4, read-out: EC50 (mean ± SEM), inhibition of leukotriene C4 release. Here is the method: Mast Cell Cultures. RBL-2H3 mast cells were a gift from Dr. Reuben P. Siraganian (Laboratory of Microbiology and Immunology, National Institute of Dental Research, National Institute of Health). The cells were maintained as monolayer cultures in 75- or 150-cm^2 flask in Eagle's essential medium supplemented with 20% fetal calf serum. Human fetal livers (16 to 21 weeks of gestational age) were obtained from prostaglandin-induced human abortuses. Subsequently, single cell suspensions were prepared and mononuclear cells were isolated by centrifugation on Ficoll-Hypaque gradients as described (Malaviya, R., et al., (1999) J Biol Chem, 274, 27028-27038). Isolated cells were cultured for 8 weeks in the presence of 100 ng/ml rhSCF, 2 ng/ml rhIL-4 (Malaviya, R., et al., (1999) J Biol Chem, 274, 27028-27038; Xia, H. Z., et al., (1997) J Immunol, 159, 2911-2921). Culture medium was replaced with fresh medium once a week for the first 2 weeks and twice a week thereafter. All human tissue specimens were used following the guidelines of the Parker Hughes Institute Institutional Review Board on the Use of Human Subjects in Research for secondary use of pathologic or surgical tissue. At the end of the 8 weeks the fetal liver derived human mast cell culture contained 70-90 percent mast cells, based on toluidine blue and tryptase staining (Xia, H. Z., et al., (1997) J Immunol, 159, 2911-2921).
Stimulation of Mast Cells. RBL-2H3 rat mast were sensitized with monoclonal anti-DNP IgE antibody (0.24 mg/ml) for 1 h at 37° C. in a 48-well tissue culture plate. Unbound IgE was removed by washing the cells with PIPES-buffered saline. After washing, PIPES-buffered saline containing 1 mM calcium chloride was added to the monolayers of the RBL-2H3 cells. The cells were challenged with 20 ng/ml DNP-BSA for 30 min at 37° C. The plate was centrifuged at 200 g for 10 min at 4° C. Supernatants were removed and saved. Fetal liver-derived human mast cells were resuspended in culture medium at a cell density of 5×10^6/ml and sensitized with human IgE (150 μg/ml) for 3 h at 4° C. After sensitization the cells were washed with tyrode buffer containing 1 mM calcium and 1 mM magnesium and challenged with mouse monoclonal anti-human IgE (40 μg/ml) for 30 min at 37° C. To study the effect of test drugs, RBL-2H3 rat mast cells or human mast cells were incubated with the drugs at the indicated concentrations or vehicle for 30 min prior to antigen challenge.
Mediator Release Assay. Leukotriene C4 levels were estimated in cell free supernatants of mast cells by immunoassay (Malaviya, R. and Abraham, S. N., (1995) Methods Enzymol, 253, 27-43).
Mast cells release large amounts of leukotrienes upon IgE receptor ligation. Because of the reported ability of LFM as a mast cell inhibitor, we utilized 13 analogues of LFM (Table 1) and examined their effect on IgE/FcεERI receptor mediated mast cell leukotriene C4 release. RBL-2H3 cells, a mucosal mast cell line, were treated with 5 different concentrations of the compounds ranging from 1 μM to 100 μM or vehicle for 30 min before challenge with antigen (DNP-BSA) at 37° C. Leukotriene C4 release was quantitated in the extracellular medium employing a previously described ELISA (Malaviya, R. and Abraham, S. N., (1995) Methods Enzymol, 253, 27-43).

For the compound `CCCc1cc(=O)oc2c(C(=O)CC)c(O)cc(O)c12` [DDE11, 5,7-Dihydroxy-8-propanoyl-4-propyl-2H-1-benzopyran-2-one], in the data set on NALM-6 cells, the apoptosis induction result is on record as “induces apoptosis”. On BTK, the IC50 (usually the midpoint of a concentration-inhibition curve) was below 36.2 µM and the “BTK inhibitory activity in words” value is “potent BTK inhibitors”. Also, the “cytotoxicity of C2-CER and vincristine on co-administration” value in the data set on human leukemia cells is “increaseed the cytotoxicity”.
Consider `CCCc1cc(=O)oc2cc(O)cc(O)c12` [DDE181, 5,7-Dihydroxy-4 propyl-2H-1-benzopyran-2-one], for which, on BTK, the IC50 was below 45.4 µM and the “BTK inhibitory activity in words” value is listed as “potent BTK inhibitors”.
For the compound `CCCc1cc(=O)oc2c(C=O)c(O)cc(O)c12` [DDE213, 5,7-Dihydroxy-8-carboxaldehyde-4-propyl-2H-1-benzopyran-2-one], on BTK, the half-maximal inhibitory concentration (IC50) was below 40.3 µM and the “BTK inhibitory activity in words” value was “potent BTK inhibitors”.
Taken in the same sequence, the figures for `CCc1cc(=O)oc2cc(O)cc(O)c12` [DDE214, 5,7-Dihydroxy-4-ethyl-2H-1-benzopyran-2-one] were below 48.5 µM and “potent BTK inhibitors”.
`CCCc1cc(=O)oc2c(C(=O)CC)c(OC)cc(OC)c12` [DDE229]: the concentration for half-maximal inhibition (IC50) against BTK was above 329 µM.
The same measure, in the same setting: under `O=c1cc(-c2ccccc2)c2c(O)cc(O)cc2o1` [DDE270, 5,7-Dihydroxy-4-phenyl-2H-1-benzopyran-2-one] stands 98.3 µM; under `CCCc1cc(=O)oc2c(C(C)=O)c(O)cc(O)c12` [DDE271, 5,7-Dihydroxy-8-acetyl-4-propyl-2H-1-benzopyran-2-one], above 381 µM; under `CCCc1cc(=O)oc2c(C(=O)C(C)C)c(O)cc(O)c12` [DDE272], above 344 µM.
Regarding `CCCc1cc(=O)oc2c(C(=O)c3ccccc3)c(O)cc(O)c12` [DDE355], at BTK, the IC50 is above 308 µM.
`CC(O)=C(C#N)C(=O)Nc1ccc(C(F)(F)F)cc1` [LFM, α-Cyano-β-hydroxy-β-methyl-N-[4-(trifluoromethyl)phenyl]-propenamide, reference compound]: the EC50 (usually the concentration that produces a half-maximal response) with RBL-2H3 rat mast cells was determined as 34 ± 14.5 µM.
On to `CC(O)=C(C#N)C(=O)Nc1ccc(Br)cc1` [LFM-A1, α-Cyano-β-hydroxy-β-methyl-N-(4-bromophenyl)propenamide], for which the melting point (as a rule, the temperature, or range, at which the solid turns liquid) fell in the range of 213 to 214 °C. In the data set on RBL-2H3 rat mast cells, the concentration for a half-maximal effect (EC50) came out at 64 ± 13.9 µM.
Taken in the same sequence, the figures for `CC(O)=C(C#N)C(=O)Nc1ccc(Cl)cc1` [LFM-A2, α-Cyano-β-hydroxy-β-methyl-N-(4-chlorophenyl)propenamide] were 209 to 211 °C and 58 ± 13 µM.
Taken in the same sequence, the figures for `CC(O)=C(C#N)C(=O)Nc1ccc(F)cc1` [LFM-A3, α-Cyano-β-hydroxy-β-methyl-N-(4-fluorophenyl)propenamide] were 165 to 166 °C and above 100 µM.
As for `CC(O)=C(C#N)C(=O)Nc1ccccc1C(F)(F)F` [LFM-A4, α-Cyano-β-hydroxy-β-methyl-N-[2-(trifluoromethyl)phenyl]-propenamide], the melting point lay in the range of 61 to 63 °C. In addition, the half-maximal effective concentration (EC50) in the data set on RBL-2H3 rat mast cells was above 100 µM.
Taken in the same sequence, the figures for `CC(O)=C(C#N)C(=O)Nc1ccccc1Br` [LFM-A5, α-Cyano-β-hydroxy-β-methyl-N-(2-bromophenyl)propenamide] were 98 to 100 °C and 46 ± 10 µM.
Taken in the same sequence, the figures for `CC(O)=C(C#N)C(=O)Nc1ccccc1Cl` [LFM-A6, α-Cyano-β-hydroxy-β-methyl-N-(2-chlorophenyl)propenamide] were 93 to 94 °C and above 100 µM.
`CC(O)=C(C#N)C(=O)Nc1ccccc1F` [LFM-A7, α-Cyano-β-hydroxy-β-methyl-N-(2-fluorophenyl)propenamide] yielded a melting point of 118 to 119 °C. Moreover, the EC50 in the data set with RBL-2H3 rat mast cells was above 100 µM.
Taken in the same sequence, the figures for `CC(O)=C(C#N)C(=O)Nc1cccc(Br)c1` [LFM-A9, α-Cyano-β-hydroxy-β-methyl-N-(3-bromophenyl)propenamide] were 184 to 185 °C and above 100 µM.
The corresponding values for `CC(O)=C(C#N)C(=O)Nc1cccc(Cl)c1` [LFM-A10, α-Cyano-β-hydroxy-β-methyl-N-(3-chlorophenyl)propenamide] are 184 to 187 °C and 51 ± 12 µM.
The corresponding values for `CC(O)=C(C#N)C(=O)Nc1cccc(F)c1` [LFM-A11, α-Cyano-β-hydroxy-β-methyl-N-(3-fluorophenyl)propenamide] are 136 to 138 °C and above 100 µM.
With `CC(O)=C(C#N)C(=O)Nc1ccc(OC(F)(F)F)cc1` [LFM-A12, α-Cyano-β-hydroxy-β-methyl-N-[4-(trifluoromethoxy)phenyl]-propenamide], the melting point was in the range of 182 to 183 °C. Further, the EC50 in the data set with RBL-2H3 rat mast cells is 30 ± 5.6 µM.
As to `CC(O)=C(C#N)C(=O)Nc1ccccc1` [LFM-A14, α-Cyano-β-hydroxy-β-methyl-N-(phenyl)propenamide], the melting point was 134 to 135 °C. The concentration for a half-maximal effect (EC50) in the data set with RBL-2H3 rat mast cells is above 100 µM.
In the case of `C/C(O)=C(\C#N)C(=O)Nc1ccc(S(C)(=O)=O)cc1` [LFM-A15, α-Cyano-β-hydroxy-β-methyl-N-[4-(methylsulfonyl)phenyl]-propenamide], the melting point was in the range of 205 to 206 °C.
On the same count and under the same terms, the same measure for `C/C(O)=C(\C#N)C(=O)Nc1cccc(S(C)(=O)=O)c1` [LFM-A16]: 213 to 214 °C; for `C/C(O)=C(\C#N)C(=O)Nc1ccc(OC(F)(F)F)c(Br)c1` [LFM-A17, α-Cyano-β-hydroxy-β-methyl-N-[3-bromo-4-(trifluoromethoxy)-phenyl]propenamide]: 178 to 179 °C.
Same read-out and setting: the same measure for `C/C(O)=C(\C#N)C(=O)Nc1cc(Cl)ccc1Cl` [LFM-A18, α-Cyano-β-hydroxy-β-methyl-N-(2,5-dichlorophenyl)-propenamide]: 143 to 144 °C.
For `C/C(O)=C(\C#N)C(=O)Nc1ccc(Br)cc1Br` [LFM-A19, α-Cyano-β-hydroxy-β-methyl-N-(2,4-dibromophenyl)-propenamide], the melting point worked out at 181 °C.
Same read-out and setting: the same measure for `C/C(O)=C(\C#N)C(=O)Nc1ccc(Cl)cc1Cl` [LFM-A20, α-Cyano-β-hydroxy-β-methyl-N-(2,4-dichlorophenyl)-propenamide]: 143 to 144 °C.
